We go through one molecule from patent US20160213639A1, “COMPOSITIONS AND METHODS FOR TREATING NON-ALCOHOLIC STEATOHEPATITIS” (MOCHIDA PHARMACEUTICAL CO., LTD., priority 2013, published 2016).

A short description of series [1]: Lipid lowering in animal models. Format: in vivo. Conditions: rats, hamsters and rabbits.
Series [2] in a line: Gastric fluid levels in pylorus-ligated rats. It counts as in vivo. Conditions: 3000 mg/kg oral dose.
A short description of series [3]: Phase II NASH trial: safety analysis. It counts as in vivo, human. The following applies: over the course of the study, all arms. The text has this: This example provides the protocol used for an ongoing phase II clinical trial, double blind, placebo-controlled study to investigate the safety, efficacy, and pharmacokinetic profile of two doses of EPA-E in subjects with NASH. Up to 70 subjects were enrolled into each treatment arm, for a total of 210 subjects to be enrolled. Block randomization using an interactive voice response system (IVRS) was used to assign patients in a 1:1:1 ratio to two active doses and placebo. Patients were stratified at randomization by presence or absence of diabetes. Patients with diabetes comprised no more than 25% of the total number of patients enrolled. Subjects were treated with 600 mg EPA-E, 900 mg EPA-E or placebo three times a day for one year. […]
The primary one-year efficacy endpoint was a composite of either a NAS <3 without worsening of fibrosis or a drop in NAS by 2 or more with contribution from more than one parameter and no worsening of fibrosis. […] This was assessed by analysis of covariance. Secondary endpoints included changes in the individual histological parameters related to NAFLD, overall NAS, liver enzymes and function, hemoglobin A1C, acute phase reactants, insulin sensitivity as measured by the homeostatic model (HOMA-IR), levels of cytokeratin 18 (CK18), hyaluronic acid, type IV collagen (7S domain), procollagen III peptide and key cytokines. […]

A short description of series [4]: Elasticity of arteries. Conditions: rabbits. It counts as in vivo.
A short description of series [5]: Safety pharmacology studies. Format: in vivo. The following applies: oral doses up to 3000 mg/kg.
Series [6] has as its system diet-induced hepatic steatosis model. In words: Mouse diet-induced hepatic steatosis model. Conditions: repeat oral administration at >0.1 mg/g. Format: in vivo.
The test system of series [7] is platelets. In words: Platelet anti-aggregation. It counts as cell-based. The following applies: platelets from rats, rabbits and humans.
In series [8] the test system is galactosamine-induced steatohepatitis mouse model. The series is described as follows: Galactosamine-induced steatohepatitis mouse model. The following applies: oral administration at 1000 mg/kg; by suppressing triglyceride accumulation. Format: in vivo.
A short description of series [9]: ADME of 14C-EPA-E in rats (absorption, distribution, metabolites, excretion). Format: in vivo. How it is done: EPADEL® is a product containing ethyl all-cis-5,8,11,14,17-eicosapentaenoate (EPA-E), one of the n-3 essential fatty acids. The preclinical absorption, distribution, metabolism and excretion (ADME) characteristics of EPA-E have been determined primarily in rats.
After administration of ^14C-EPA-E into the ligated intestine of rats, the residual radioactivity in the intestine at 24 hours was only 4.6% of the administered dose. Radioactivity transferred to the plasma and lymph was mainly detected in the triglyceride (TG) fraction in the early phase after dosing, while distribution to the free fatty acid (FFA) fraction was slight at all timepoints. […] Orally administered EPA-E was primarily incorporated in adrenal gland lipids as cholesterol esters of the fatty acids eicosapentaenoic acid (EPA), docosapentaenoic acid (DPA) and docosahexaenoic acid (DHA).
Consequently, when EPA-E is administered orally to humans, it would appear that it is well absorbed, even though the unchanged ethyl ester form is not detected, and the free form (EPA) is only detected at a very low level, in the blood. Due to this absorption mechanism of essential fatty acids, the administered EPA-E exists as a blood-constituent fatty acid in the total lipids. In fact, according to the approval package document of Lovaza®, the free form of EPA is undetectable in the circulation (<1 μM) following an oral dose of 4 g of Omacor® (a mixture of the ethyl esters of EPA and DHA) Following oral administration of EPA-E, EPA, DPA and DHA were isolated and identified as metabolites in tissues and plasma. EPA, DPA and DHA were incorporated into TG and PL. Radioactivity was primarily excreted in expired air (44%) after single oral administration at 30 mg/kg EPA-E with minimal excretion in bile and urine (˜3%) and approximately 20% excreted in feces.
Renal excretion was the elimination route for several minor highly polar metabolites (<0.4%), but EPA-E, EPA, DPA or DHA were not detected in the urine. In feces, EPA-E and EPA, evidently derived from the unabsorbed drug, were detected; however, no DPA or DHA was detected in the feces.
In the total lipid fraction of the liver, the radioactivity originated mainly from EPA, DPA and DHA. Thus, it is considered that EPA, DPA and DHA are the predominant metabolites of ^14C-EPA-E in tissues, as constituent fatty acids of the total lipid fraction.

Series [10] relates to methionine-choline deficient diet rat model of nonalcoholic steatohepatitis. In words: Methionine-choline deficient diet rat model of nonalcoholic steatohepatitis. It counts as in vivo. Conditions: repeat oral administration at 1000 mg/kg.
In series [11] the test system is NASH. The series is described as follows: Phase II NASH trial: laboratory parameters and circulating markers. Format: in vivo, human. An excerpt: This example provides the protocol used for an ongoing phase II clinical trial, double blind, placebo-controlled study to investigate the safety, efficacy, and pharmacokinetic profile of two doses of EPA-E in subjects with NASH. Up to 70 subjects were enrolled into each treatment arm, for a total of 210 subjects to be enrolled. Block randomization using an interactive voice response system (IVRS) was used to assign patients in a 1:1:1 ratio to two active doses and placebo. Patients were stratified at randomization by presence or absence of diabetes. Patients with diabetes comprised no more than 25% of the total number of patients enrolled. Subjects were treated with 600 mg EPA-E, 900 mg EPA-E or placebo three times a day for one year.
Following confirmation of eligibility based on both inclusion and exclusion criteria, subjects were randomized to receive placebo or one of two doses of EPA-E (1800 mg/day or 2700 mg/day) in three divided doses daily. Block randomization using an interactive voice response system was used to assign subjects in a 1:1:1 ratio between the three arms. Subjects were stratified by the presence of diabetes, impaired glucose tolerance or metabolic syndrome on stable doses of medication. The total fraction of such individuals was capped at 40% of the study cohort.
All subjects were followed according to a predefined clinic schedule. Data from unscheduled visits were collected in separate forms. Following twelve months of treatment, all subjects underwent a protocol-driven liver biopsy. Study drug was then discontinued.
The primary one-year efficacy endpoint was a composite of either a NAS <3 without worsening of fibrosis or a drop in NAS by 2 or more with contribution from more than one parameter and no worsening of fibrosis. The proportions of subjects meeting this endpoint after 12 months of treatment in those receiving EPA-E were compared to those receiving placebo using the Cochrane-Armitage trend test. A short-term efficacy endpoint was changes from baseline in alanine aminotransferase at 3 and 6 months. This was assessed by analysis of covariance. Secondary endpoints included changes in the individual histological parameters related to NAFLD, overall NAS, liver enzymes and function, hemoglobin A1C, acute phase reactants, insulin sensitivity as measured by the homeostatic model (HOMA-IR), levels of cytokeratin 18 (CK18), hyaluronic acid, type IV collagen (7S domain), procollagen III peptide and key cytokines. Proportions of subjects meeting categorical endpoints were compared using the Cochrane-Armitage test for trend. Numerical scores were compared using Wilcoxon 2-sample tests. Safety-related endpoints included adverse events including hematological-, biochemical-, renal- and EKG-related abnormalities. These were enumerated.

Setting [12] is: single oral administration at 30 mg/kg.

Take `CC/C=C\C/C=C\C/C=C\C/C=C\C/C=C\CCCC(=O)OCC` [EPA-E, ethyl all-cis-5,8,11,14,17-eicosapentaenoate]: the lipids result in [1] is “lower lipids”. Further, the gastric fluid levels entry in [2] was “reduction in gastric fluid levels”. Moreover, the deaths entry in series [3] is “No deaths occurred”. Besides, the elasticity of arteries result in [4] is listed as “preserve the elasticity of arteries”. For the same molecule, the “effect on central nervous, autonomic nervous, respiratory and cardiovascular systems” value in [5] was “no effect on the central nervous, autonomic nervous, respiratory and cardiovascular systems”. Besides, in series [6], the fat accumulation result is given as “suppressed fat accumulation” and the “hepatic SREBP-1c levels” value is recorded as “suppressing hepatic SREBP-1c levels”. The effects on platelets entry in [7] is recorded as “anti-aggregation effects”. Besides, the progression of steatohepatitis entry in [8] is reported as “retarded progression of steatohepatitis”. Further, in series [9] (rat, in vivo, po, 30 mg/kg), the “radioactivity excreted in expired air” value amounted to 44%. Moreover, in series [9] (setting [12]), the “radioactivity excreted in bile and urine” value was approximately 3%; the “radioactivity excreted in feces” value is “approximately 20%”. Further, the fibrosis result in series [10] was “inhibited fibrosis”. In addition, the body mass index entry in series [11] (across groups) was “remained similar across groups”. For the same molecule, the “AST, ALT or GGT” value in series [11] (baseline to end of study, FIG. 8) was “no significant changes”. In addition, the “HgbA1C or circulating fasting insulin concentrations” value in [11] (either active treatment arm compared to placebo) was “no significant changes”. The “change in serum triglycerides” value in series [11] (high dose EPA-E, placebo 11.5±50.9, p<0.05, Wilcoxon rank sum test) was −4.9±116.0. Besides, the “change in serum ALT” value in [11] (high dose EPA-E, placebo −24.1±48.3, p<0.05, Wilcoxon rank sum test) is on record as −3.2±51.5. In series [11] (over the course of the study), the hepatic synthetic functions entry was “did not change over the course of the study and remained stable”.
